In ChEMBL document CHEMBL1828574, “Synthesis and structural studies of pentacycloundecane-based HIV-1 PR inhibitors: a hybrid 2D NMR and docking/QM/MM/MD approach” (Eur J Med Chem, 2011) one finds IC50, solubility and selectivity ratio data, which are given here for ten molecules.

Where a SMILES comes first, the peptide text is derived from it. The star is where a group is joined. X1 = Oc1cccc(N*)c1 A value given as a limit tells only on which side of the number the result lay.

Series [1] deals with Human immunodeficiency virus type 1 protease (Human immunodeficiency virus 1, UniProt Q72874, Q7K). Briefly: Inhibition of HIV1 subtype C protease Q7K mutant expressed in Escherichia coli BL21 (DE3) pLysS using Lys-Ala-Arg-Val-Nle-p-nitro-Phe-Glu-Ala-Nle-NH2 as substrate by spectrophotometry.
Another series concerns MT4. Nature of the series: Cytotoxicity against human MT4 cells after 5 days by XTT assay. The series is classed as cell-based. Conditions: MT4, 120 h. For orientation: Tetrazolium dyes change colour on reduction, which living cells bring about.
A short description of series [2]: Solubility of the compound in aqueous buffer at pH 5. The format is physicochemical.
Series [3] in a line: Ratio of cytotoxicity for Lopinavir to compound for human MT4 cells after 5 days by XTT assay. The series is classed as cell-based.

Turning to `CC[C@H](C)[C@H](NC(=O)[C@@H](N)CO)C(=O)N[C@@H](C)C(=O)NC12NC(=O)C3(O)C4C5CC(C6C5C3C61)C42` (mixture of isomers; form 1), the half-inhibitory concentration (IC50) in series [1] was 0.5 µM; in the series on MT4, greater than 300 µM. For the same molecule, the solubility entry in series [2] is reported as “soluble”. Besides, the selectivity ratio at 120 h in series [3] was 6000.

On to `CC[C@H](C)[C@H](N)C(=O)N[C@@H](C)C(=O)N[C@@H](CCC(=O)O)C(=O)NC12NC(=O)C3(O)C4C5CC(C6C5C3C61)C42` (mixture of isomers), for which the IC50 in series [1] is 0.5 µM; in the series with MT4, 216 µM. Moreover, in series [2], the solubility result is given as “soluble”. In series [3], the selectivity ratio at 120 h worked out at 6000.

On to `CC[C@H](C)[C@H](NC(=O)[C@@H](N)CO)C(=O)N[C@@H](C)C(=O)N[C@@H](CCC(=O)O)C(=O)NC12NC(=O)C3(O)C4C5CC(C6C5C3C61)C42` (mixture of isomers), for which the IC50 in series [1] worked out at 0.078 µM; with MT4, 218 µM. Besides, in series [2], the solubility result was “soluble”. In addition, the selectivity ratio at 120 h in series [3] was determined as 6000.

Regarding `Cc1cccc(C)c1OCC(=O)N[C@@H](Cc1ccccc1)[C@@H](O)C[C@H](Cc1ccccc1)NC(=O)[C@H](C(C)C)N1CCCNC1=O` [LOPINAVIR], in the series on MT4, the IC50 came out at 0.035 µM.

In series [1], `CC[C@H](C)[C@H](NC(=O)[C@@H](N)CO)C(=O)N[C@H](C(=O)N[C@@H](CCC(=O)O)C(=O)NC12NC(=O)C3(O)C4C5CC(C6C5C3C61)C42)C(C)C` (mixture of isomers) returned an IC50 of 2 µM. Moreover, the solubility result in series [2] is listed as “soluble”. Also, in series [3], the selectivity ratio at 120 h was 6000.

In series [1], `COC(=O)N[C@H](C(=O)N[C@@H](Cc1ccccc1)[C@@H](O)CN(Cc1ccc(-c2ccccn2)cc1)NC(=O)[C@@H](NC(=O)OC)C(C)(C)C)C(C)(C)C` [ATAZANAVIR] gave an IC50 of 0.004 µM.

Turning to `CC[C@H](C)[C@H](NC(=O)[C@@H](N)CO)C(=O)N[C@@H](C)C(=O)N[C@@H](CCC(=O)O)C(=O)Nc1cccc(O)c1` (H-SIAE-X1), the IC50 in series [1] is 10 µM. Against the preceding molecule, the IC50 is about 2500-fold higher.

With `CC[C@H](C)[C@H](NC(=O)[C@@H](N)CO)C(=O)N[C@@H](C)C(=O)N[C@@H](CCC(=O)O)C(=O)NC12NC(=O)C3(OC(C)=O)C4C5CC(C6C5C3C61)C42` (mixture of isomers), the IC50 in series [1] is greater than 10 µM. In addition, the solubility result in series [2] is “soluble”. The selectivity ratio at 120 h in series [3] was found to be 6000.

With `CC[C@H](C)[C@H](NC(=O)[C@@H](N)CO)C(=O)N[C@@H](C)C(=O)N[C@@H](CCC(N)=O)C(=O)NC12NC(=O)C3(O)C4C5CC(C6C5C3C61)C42` (mixture of isomers), the midpoint of inhibition in series [1], the IC50, lay at 5 µM. The solubility result in series [2] is “soluble”. Further, the selectivity ratio at 120 h in series [3] came to 6000.

With `CC[C@H](C)[C@H](NC(=O)[C@@H](N)CO)C(=O)N[C@@H](C)C(=O)NC12NC(=O)C3(O)C4C5CC(C6C5C3C61)C42` (mixture of isomers; form 2), in series [1], half-maximal inhibition (IC50) was put at 10 µM. This counts as double-digit micromolar.

As usually defined, the IC50 is the concentration needed to halve the response being measured. Lower therefore signals higher potency.
